Measurements: the SangsterLogP compilation

Conditions: not given
Work on `CC(C)(C)NC(=O)COC(=O)c1ccccc1` yielded a logP of 2.26.
`CCCNC(=O)COC(=O)c1ccccc1` showed a logP of 1.88.
For `CC(=O)NC(=O)COC(=O)c1ccccc1`, the logP was 1.24.
Molecule `CCC1CCCCN1C(=O)COC(=O)c1ccccc1` (stereo unspecified) has a logP of 2.62.
`CCCCCCNC(=O)COC(=O)c1ccccc1` showed a logP of 2.81.
`CC(=O)N(C)C(=O)COC(=O)c1ccccc1` showed a logP of 1.58.
With `CCCCCCN(C)C(=O)COC(=O)c1ccccc1` the logP was 2.99.
For `CCN(CC)C(=O)C(C)OC(=O)c1ccccc1` (stereo unspecified), the logP was 2.3.
`COCCN(CCOC)C(=O)COC(=O)c1ccccc1` showed a logP of 1.28.
Molecule `C=CCN(CC=C)C(=O)COC(=O)c1ccccc1` has a logP of 2.34.
Work on `O=C(COC(=O)c1ccccc1)NC(CO)(CO)CO` yielded a logP of 0.25.
`O=C(OCC(=O)N1CCC(O)CC1)c1ccccc1` gave a logP of 0.63.
`CC(=O)N(C)CCOC(=O)c1ccccc1` showed a logP of 1.24.
`CCCCCCN(CCCCCC)C(=O)COC(=O)c1ccccc1` showed a logP of 6.53.
Molecule `CNC(=O)COC(=O)c1ccccc1` has a logP of 0.99.
Work on `O=C(OCC(=O)N1CCCCC1)c1ccccc1` yielded a logP of 1.95.
Molecule `NC(=O)COC(=O)c1ccccc1` has a logP of 0.69.
`CC(C)NC(=O)COC(=O)c1ccccc1` gave a logP of 1.73.
`CCCCNC(=O)COC(=O)c1ccccc1` showed a logP of 2.36.
Work on `CCNC(=O)COC(=O)c1ccccc1` yielded a logP of 1.28.
In the case of `NC(=O)C1CCCN1C(=O)COC(=O)c1ccccc1` (stereo unspecified), the logP is reported as 0.2.
In the case of `CC(NC(=O)COC(=O)c1ccccc1)C(N)=O` (stereo unspecified), the logP is reported as 0.42.
`O=C(OCC(=O)N1CCOCC1)c1ccccc1` showed a logP of 0.9.
Work on `CC(O)CN(CC(C)O)C(=O)COC(=O)c1ccccc1` (stereo unspecified) yielded a logP of 0.66.

Same assay, conditions: pH 2.0
With `CN(CC(=O)O)C(=O)COC(=O)c1ccccc1` the logD was 0.67.
Molecule `O=C(OCC(=O)N1CCC1C(=O)O)c1ccccc1` (stereo unspecified) has a logD of 0.79.
